# Target: T1, Solute carrier organic anion transporter family member 1B1 (Homo sapiens, UniProt Q9Y6L6)
# T1 sequence (Q9Y6L6 whole entry): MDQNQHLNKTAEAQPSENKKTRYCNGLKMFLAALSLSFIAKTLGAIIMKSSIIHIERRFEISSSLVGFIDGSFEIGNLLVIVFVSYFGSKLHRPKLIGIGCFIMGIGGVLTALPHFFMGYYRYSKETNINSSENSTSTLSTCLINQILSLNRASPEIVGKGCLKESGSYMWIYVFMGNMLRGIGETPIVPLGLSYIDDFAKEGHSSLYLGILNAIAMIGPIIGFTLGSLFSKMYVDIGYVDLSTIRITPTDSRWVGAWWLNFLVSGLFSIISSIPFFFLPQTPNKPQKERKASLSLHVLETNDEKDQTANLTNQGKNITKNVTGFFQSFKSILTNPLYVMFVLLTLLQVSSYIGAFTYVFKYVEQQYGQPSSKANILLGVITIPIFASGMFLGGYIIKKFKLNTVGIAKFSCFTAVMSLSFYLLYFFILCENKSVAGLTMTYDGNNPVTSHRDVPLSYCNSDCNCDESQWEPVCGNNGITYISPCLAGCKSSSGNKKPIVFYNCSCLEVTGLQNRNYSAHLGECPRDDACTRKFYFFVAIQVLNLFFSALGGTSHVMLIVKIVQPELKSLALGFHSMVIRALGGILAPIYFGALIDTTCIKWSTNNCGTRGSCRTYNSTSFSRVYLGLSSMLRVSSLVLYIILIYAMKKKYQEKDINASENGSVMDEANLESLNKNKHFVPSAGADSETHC
# Experiment: Inhibition of OATP1B1 (unknown origin)
# Type: ADME
smiles,measurement,value
CNc1nc(Nc2ccc(-n3cnc(C)n3)c(OC)c2)nc2c1CC[C@H]2c1ccc(F)cc1,IC50,0.066 µM

# Source: ChEMBL document CHEMBL4699441, “Identification and Preclinical Evaluation of the Bicyclic Pyrimidine γ-Secretase Modulator BMS-932481” (ACS Med Chem Lett, 2019)
